Test system: coagulation cascade (intrinsic and common pathways of coagulation)
Assay: Partial thromboplastin time (PTT) test of coating agents
Type: biochemical
Conditions: for Extension of control PTT (in words): versus the respective solvent control, both concentrations tested
Description: A useful test in determining the hemocompatibility of a reagent is the partial thromboplastin time (PTT) test. The PTT is a test of the intrinsic (factors VIII, IX, XI, and XII) and common (fibrinogen, prothrombin, factors V and X) pathways of coagulation. A mixture of plasma and phospholipid platelet substitute (rabbit brain cephalin) is recalcified and the time required for the appearance of fibrin strands measured.
The PTT was tested to determine whether Compound I or Compound II have the ability to extend the control PTT. A test tube of rabbit brain cephalin (Sigma #RBC) in 0.85% NaCl and a test tube of 0.02 M CaCl2 was brought to 37° C. in a water bath. Dade Ci-trol coagulation control lyophilized plasma (Dade International, Inc., product no. 34224-10) was reconstituted in sterile deionized water. In 10×75 mm glass test tubes, 100 μl reconstituted plasma and 100 μl RBC were mixed and incubated at 37° C. in a water bath for 5 minutes. Next, 50 μl of sample (deionized water, a photocrosslinkable polyvinylpyrrolidone (available from SurModics, Inc., product no. PVO5), or Compound I or II) was added and mixed. While simultaneously starting a stop watch, 100 μl of 0.02 M CaCl2 was added to initiate the clotting cascade. After 40 seconds had passed, the test tubes were shaken lightly, observed for fibrin formation, and the number of seconds was recorded.
All samples were tested in duplicate. The appropriate control PTT, depending upon what solvent in which the reagent was dissolved, was subtracted from the average PTT for the reagent to give the time the control PTT was extended.

Row | SMILES | Extension of 50% IPA control PTT (higher of the two final concentrations tested, 50% IPA control) [h] | Extension of control PTT (in words)
1 | O=C(c1ccccc1)c1ccc(COc2cc(S(=O)(=O)[O-])c(OCc3ccc(C(=O)c4ccccc4)cc3)cc2S(=O)(=O)[O-])cc1.[K+].[K+] [Compound II, 2,5-bis(4-benzoylphenylmethyleneoxy) benzene-1,4-disulfonic acid dipotassium salt] | 1 | considerably extend
2 | O=C(c1ccccc1)c1ccc(COc2cc(S(=O)(=O)[O-])cc(S(=O)(=O)[O-])c2OCc2ccc(C(=O)c3ccccc3)cc2)cc1.[K+].[K+] [Compound I, 4,5-bis(4-benzoylphenylmethyleneoxy) benzene-1,3-disulfonic acid disodium salt] |  | considerably extend
